Active and inactive are the calls of the source.
Experiments:
Rattus norvegicus [1] = assay: Antihyperalgesic activity in Sprague-Dawley rat model of Complete freund's adjuvant-induced arthritis assessed as pain threshold of ipsilateral paw at 13.4 mg/kg, po starting from day 14 after CFA injection and measured at 15 mins by paw pressure test (reference value: 40.1 +/- 0.7 g); type: functional
Rattus norvegicus [2] = assay: (§1) Antihyperalgesic activity in Sprague-Dawley rat model of Complete freund's adjuvant-induced arthritis assessed as reduction in difference between weight burdened on contralateral and ipsilateral paw at 13.4 mg/kg, po starting from day 14 after CFA injection and measured at 15 mins incapacitance test; type: functional, organism-based
Rattus norvegicus [3] = assay: Antihyperalgesic activity in Sprague-Dawley rat model of Complete freund's adjuvant-induced arthritis assessed as pain threshold of ipsilateral paw at 13.4 mg/kg, po starting from day 14 after CFA injection and measured at 30 mins by paw pressure test (reference value: 40.1 +/- 0.7 g); type: functional
[4] = target: COX1 (Prostaglandin G/H synthase 1) (Homo sapiens, UniProt P23219); assay: Inhibition of COX1 in human platelet rich plasma in assessed as inhibition of ADP-induced platelet aggregation at 10 uM incubated for 5 mins by turbidimetry based Born's method relative to control
[5] = Half life in human plasma by LC-MS/MS analysis; type: ADME, cell-free
Rattus norvegicus [6] = assay: (§2) Antihyperalgesic activity in Sprague-Dawley rat model of Complete freund's adjuvant-induced arthritis assessed as reduction in difference between weight burdened on contralateral and ipsilateral paw at 10 mg/kg, po starting from day 14 after CFA injection and measured at 30 mins incapacitance test; type: functional, organism-based
Rattus norvegicus [7] = assay: Antihyperalgesic activity in Sprague-Dawley rat model of Complete freund's adjuvant-induced arthritis assessed as effect on pain threshold of ipsilateral paw at 30 mg/kg, po starting from day 14 after CFA injection and measured at 60 mins by paw pressure test; type: functional, organism-based
Rattus norvegicus [8] = assay: as §1, with “30” for “13.4”, “15 to 45” for “15”; type: functional, organism-based
[9] = target: Carbonic anhydrase 2 (Homo sapiens) (UniProt P00918)
Description: Inhibition of human CA2 pre-incubated for 6 hrs by stopped- flow CO2 hydrase assay method based Cheng-Prusoff equation analysis

Rattus norvegicus [10] = assay: Antihyperalgesic activity in Sprague-Dawley rat model of Complete freund's adjuvant-induced arthritis assessed as pain threshold of ipsilateral paw at 30 mg/kg, po starting from day 14 after CFA injection and measured at 15 mins by paw pressure test (reference value: 40.1 +/- 0.7 g); type: functional
Rattus norvegicus [11] = assay: Antihyperalgesic activity in Sprague-Dawley rat model of Complete freund's adjuvant-induced arthritis assessed as increase in pain threshold of ipsilateral paw at 3 to 30 mg/kg, po starting from day 14 after CFA injection and measured at 0 to 60 mins by paw pressure test; type: functional, organism-based
Rattus norvegicus [12] = assay: Antihyperalgesic activity in Sprague-Dawley rat model of Complete freund's adjuvant-induced arthritis assessed as increase in pain threshold of ipsilateral paw at 10 mg/kg, po starting from day 14 after CFA injection and measured at 30 mins by paw pressure test; type: functional
[13] = target: Carbonic anhydrase 12 (Homo sapiens) (UniProt O43570)
Description: Inhibition of human CA12 pre-incubated for 6 hrs by stopped- flow CO2 hydrase assay method based Cheng-Prusoff equation analysis

[14] = Half life in Sprague-Dawley rat plasma by LC-MS/MS analysis; type: ADME, cell-free
[15] = target: Carbonic anhydrase 4 (Homo sapiens) (UniProt P22748)
Description: Inhibition of human CA4 pre-incubated for 6 hrs by stopped- flow CO2 hydrase assay method based Cheng-Prusoff equation analysis

Rattus norvegicus [16] = assay: (§3) Antihyperalgesic activity in Sprague-Dawley rat model of Complete freund's adjuvant-induced arthritis assessed as reduction in difference between weight burdened on contralateral and ipsilateral paw at 3 mg/kg, po starting from day 14 after CFA injection and measured at 30 mins incapacitance test; type: functional, organism-based
[17] = target: Carbonic anhydrase 9 (Homo sapiens) (UniProt Q16790)
Description: Inhibition of human CA9 pre-incubated for 6 hrs by stopped- flow CO2 hydrase assay method based Cheng-Prusoff equation analysis

Rattus norvegicus [18] = assay: Antihyperalgesic activity in Sprague-Dawley rat model of Complete freund's adjuvant-induced arthritis assessed as pain threshold of ipsilateral paw at 3 mg/kg, po starting from day 14 after CFA injection and measured at 30 mins by paw pressure test (reference value: 40.1 +/- 0.7 g); type: functional
[19] = target: Carbonic anhydrase 7 (Homo sapiens) (UniProt P43166)
Description: Inhibition of human CA7 pre-incubated for 6 hrs by stopped- flow CO2 hydrase assay method based Cheng-Prusoff equation analysis

[20] = target: Carbonic anhydrase 1 (Homo sapiens) (UniProt P00915)
Description: Inhibition of human CA1 pre-incubated for 6 hrs by stopped- flow CO2 hydrase assay method based Cheng-Prusoff equation analysis

[21] = Stability in PBS; type: physicochemical; details: buffer
Rattus norvegicus [22] = assay: Antihyperalgesic activity in Sprague-Dawley rat model of Complete freund's adjuvant-induced arthritis assessed as pain threshold of ipsilateral paw at 30 mg/kg, po starting from day 14 after CFA injection and measured at 30 mins by paw pressure test (reference value: 40.1 +/- 0.7 g); type: functional
Rattus norvegicus [23] = assay: Antihyperalgesic activity in Sprague-Dawley rat model of Complete freund's adjuvant-induced arthritis assessed as increase in pain threshold of ipsilateral paw at 10 mg/kg, po starting from day 14 after CFA injection and measured at 45 mins by paw pressure test; type: functional, organism-based
Rattus norvegicus [24] = assay: as §3, with “3 to 30” for “3”, “0 to 60” for “30”; type: functional, organism-based
Rattus norvegicus [25] = assay: Antihyperalgesic activity in Sprague-Dawley rat model of Complete freund's adjuvant-induced arthritis assessed as increase in pain threshold of ipsilateral paw at 10 mg/kg, po starting from day 14 after CFA injection and measured at 15 mins by paw pressure test; type: functional, organism-based
Rattus norvegicus [26] = assay: as §2, with “measured at 15 to 30 mins” for “measured at 30 mins”; type: functional, organism-based
Rattus norvegicus [27] = assay: Antihyperalgesic activity in Sprague-Dawley rat model of Complete freund's adjuvant-induced arthritis assessed as pain threshold of ipsilateral paw at 30 mg/kg, po starting from day 14 after CFA injection and measured at 45 mins by paw pressure test (reference value: 40.1 +/- 0.7 g); type: functional
Rattus norvegicus [28] = assay: Antihyperalgesic activity in Sprague-Dawley rat model of Complete freund's adjuvant-induced arthritis assessed as increase in pain threshold of ipsilateral paw at 30 mg/kg, po starting from day 14 after CFA injection and measured at 0 to 60 mins by paw pressure test; type: functional, organism-based
Rattus norvegicus [29] = assay: Antihyperalgesic activity in Sprague-Dawley rat model of Complete freund's adjuvant-induced arthritis assessed as reduction in difference between weight burdened on contralateral and ipsilateral paw at 30 mg/kg, po starting from day 14 after CFA injection and measured at 30 mins incapacitance test; type: functional, organism-based
[30] = Solubility of the compound; type: physicochemical

Chain of COX1 (Prostaglandin G/H synthase 1) (P23219 whole entry): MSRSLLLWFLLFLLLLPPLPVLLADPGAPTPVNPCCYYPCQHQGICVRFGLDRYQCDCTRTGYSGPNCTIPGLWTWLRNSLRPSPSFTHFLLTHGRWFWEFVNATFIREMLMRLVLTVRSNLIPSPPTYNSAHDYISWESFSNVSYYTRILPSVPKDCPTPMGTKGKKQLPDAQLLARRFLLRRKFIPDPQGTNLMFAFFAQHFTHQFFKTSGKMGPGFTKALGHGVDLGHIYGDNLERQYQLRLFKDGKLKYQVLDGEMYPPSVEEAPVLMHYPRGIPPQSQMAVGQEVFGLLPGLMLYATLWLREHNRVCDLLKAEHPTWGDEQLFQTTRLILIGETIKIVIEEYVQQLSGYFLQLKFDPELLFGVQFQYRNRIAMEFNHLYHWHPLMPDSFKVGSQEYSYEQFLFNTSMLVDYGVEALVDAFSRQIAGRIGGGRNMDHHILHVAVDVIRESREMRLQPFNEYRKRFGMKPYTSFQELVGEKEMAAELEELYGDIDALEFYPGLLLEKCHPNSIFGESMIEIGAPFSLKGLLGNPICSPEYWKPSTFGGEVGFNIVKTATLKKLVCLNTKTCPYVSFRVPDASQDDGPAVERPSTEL
Chain of Carbonic anhydrase 7 (Homo sapiens) (P43166 whole entry): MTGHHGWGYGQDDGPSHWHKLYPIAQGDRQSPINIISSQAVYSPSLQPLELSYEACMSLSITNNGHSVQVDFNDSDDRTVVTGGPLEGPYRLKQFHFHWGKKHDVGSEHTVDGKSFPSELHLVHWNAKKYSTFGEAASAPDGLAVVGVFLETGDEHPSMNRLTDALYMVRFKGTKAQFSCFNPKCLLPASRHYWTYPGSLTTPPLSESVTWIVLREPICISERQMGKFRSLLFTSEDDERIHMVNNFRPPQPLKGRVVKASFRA
Chain of Carbonic anhydrase 1 (Homo sapiens) (P00915 2-261 limits assumed): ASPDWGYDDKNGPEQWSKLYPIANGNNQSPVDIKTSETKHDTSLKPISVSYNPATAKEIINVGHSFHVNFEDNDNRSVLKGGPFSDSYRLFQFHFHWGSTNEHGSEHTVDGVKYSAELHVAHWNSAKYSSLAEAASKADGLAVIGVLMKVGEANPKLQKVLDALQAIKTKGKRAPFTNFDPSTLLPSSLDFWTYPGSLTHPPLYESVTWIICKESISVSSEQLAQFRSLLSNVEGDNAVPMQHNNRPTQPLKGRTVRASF
Chain of Carbonic anhydrase 4 (Homo sapiens) (P22748 whole entry): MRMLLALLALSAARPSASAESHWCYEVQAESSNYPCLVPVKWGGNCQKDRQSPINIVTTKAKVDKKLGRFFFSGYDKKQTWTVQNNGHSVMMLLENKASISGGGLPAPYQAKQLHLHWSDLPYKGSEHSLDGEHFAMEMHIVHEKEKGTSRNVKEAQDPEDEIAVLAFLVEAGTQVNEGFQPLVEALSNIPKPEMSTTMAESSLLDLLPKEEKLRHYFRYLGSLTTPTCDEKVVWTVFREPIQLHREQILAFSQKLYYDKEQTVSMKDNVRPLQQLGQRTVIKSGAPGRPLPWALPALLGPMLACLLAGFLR
Chain of Carbonic anhydrase 12 (Homo sapiens) (O43570 whole entry): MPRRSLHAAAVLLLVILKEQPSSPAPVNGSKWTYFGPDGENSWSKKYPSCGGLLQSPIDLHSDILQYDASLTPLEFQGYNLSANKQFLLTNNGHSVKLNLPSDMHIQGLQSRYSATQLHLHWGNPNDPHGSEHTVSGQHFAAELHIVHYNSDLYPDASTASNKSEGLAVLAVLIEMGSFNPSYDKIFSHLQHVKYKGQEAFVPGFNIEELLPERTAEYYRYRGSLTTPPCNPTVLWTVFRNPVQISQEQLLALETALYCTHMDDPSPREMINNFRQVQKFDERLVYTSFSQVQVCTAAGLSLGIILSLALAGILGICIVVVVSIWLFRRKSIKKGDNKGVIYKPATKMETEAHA

inhibition at 5 min, 10 µM [4] | half-life [5] | Ki [9] | Ki [13] | half-life [14] | Ki [15] | Ki [17] | Ki [19] | Ki [20] | Stability [21] | SMILES | also measured
 |  |  |  |  |  |  |  |  |  | O=c1ccc2cc(OCCO)ccc2o1 | Activity (Rattus norvegicus [1]): 51.7 g; Activity (Rattus norvegicus [2]): Active; Activity (Rattus norvegicus [3]): 18.4 g
5 to 30% | 31 min | > 10 µM | 83.1 nM | 4.7 min | 2.3 nM | 36.9 nM | > 10 µM | > 10 µM | Stable | CC(C(=O)OCCOc1ccc2oc(=O)ccc2c1)c1cccc(C(=O)c2ccccc2)c1 (racemic) | Activity (Rattus norvegicus [6]): Active; Activity (Rattus norvegicus [7]): inactive; Activity (Rattus norvegicus [8]): Active; Activity (Rattus norvegicus [10]): <=53.8 g; Activity (Rattus norvegicus [11]): Dose-dependent effect; Activity (Rattus norvegicus [12]): 100%; Activity (Rattus norvegicus [16]): Active; Activity (Rattus norvegicus [18]): 49.4 g; Activity (Rattus norvegicus [22]): <=64.4 g; Activity (Rattus norvegicus [23]): inactive; Activity (Rattus norvegicus [24]): Dose-dependent effect; Activity (Rattus norvegicus [25]): Active; Activity (Rattus norvegicus [26]): Active; Activity (Rattus norvegicus [27]): <=50 g
5 to 30% | 12 min | > 10 µM | 55.4 nM | 2.1 min | 6.7 nM | 35.4 nM | > 10 µM | > 10 µM | Stable | CC(C(=O)OCCOc1ccc2ccc(=O)oc2c1)c1cccc(C(=O)c2ccccc2)c1 (racemic) | Activity (Rattus norvegicus [28]): inactive; Activity (Rattus norvegicus [29]): Active; solubility [30]: Insoluble

From ChEMBL document CHEMBL4402543, “Bioisosteric Development of Multitarget Nonsteroidal Anti-Inflammatory Drug-Carbonic Anhydrases Inhibitor Hybrids for the Management of Rheumatoid Arthritis” (J Med Chem, 2020)
